Patent US4464396A, “4-[N-(Hydroxybenzyl)aminomethyl]cyclohexane-1-carboxylic acid” (Kureha Kagaku Kogyo Kabushiki Kaisha, priority 1981, dated 1984)
pIC50: −log10 of the molar value.

Columns and labels:
[1] = Acute toxicity, peroral administration of aqueous solution to mice; settings: mouse, in vivo, po, female JCL-ICR mice 5 to 6 weeks old
Description: (2) Examination for acute toxicity:
Acute toxicity was examined by administering perorally an aqueous solution of each Specimen to female JCL-ICR mice 5 to 6 weeks after their birth.

[2] = test system: Rat's polynuclear leukocyte migration; test: Inhibitory effect on polynuclear leukocyte migration (Boyden method); format: cell-based; settings: rat polynuclear leukocytes, read-out: Concentration of 50% inhibition of polynuclear leukocyte migration IC50
Description: (1) Examination for inhibitory effect on polynuclear leukocyte migration:
Rat's polynuclear leukocyte migration was examined by the Boyden method.

Row | Compound | LD50 [1] [mg/kg] | pIC50 [2]
1 | O=C(O)[C@H]1CC[C@H](CNCc2ccc(O)c(O)c2)CC1 [II] | > 3000 | 4.49
2 | O=C(O)[C@H]1CC[C@H](CNCc2ccccc2O)CC1 [I] | > 3000 | 3.47
3 | COc1ccc2c(c1)c(CC(=O)O)c(C)n2C(=O)c1ccc(Cl)cc1 [III] | – | 3.62
